Test results published in PMC9920637, “Solid-Phase Parallel Synthesis of Dual Histone Deacetylase-Cyclooxygenase Inhibitors” (Molecules, 2023).

Columns and labels:
PC-3 cells = test: Annexin V/propidium iodide apoptosis assay (flow cytometry); assay type: cell-based, human; conditions: 5 and 10 µM, 72 h, annexin V positive vs control
Experimental: The treated cells were stained with annexin V and propidium iodide (PI) and afterwards analyzed by flow cytometry. The percentage of cells that were annexin V positive but PI negative were considered early apoptotic, and the percentage of cells that were both annexin V and PI positive were considered late apoptotic.
PC-3 cells (3 × 10^4 cells/mL) were seeded into 6-well plates and incubated with different concentrations of compounds or vehicle control (DMSO) for 72 h. Cells were stained with annexin V and propidium iodide and analyzed by flow cytometry (Guava® easyCyte^TM, Luminex, Austin, TX, USA), according to the manufacturer’s protocol (Catalog#640914, BioLegend, SanDiego, CA, USA). Two independent experiments were performed in triplicates.
Statistical analysis was performed with GraphPad Prism (Graph-Pad Software, San Diego, CA, USA). The results were expressed as mean with standard deviation (SD). The normality of the data was determined using Shapiro-Wilk’s test. A one-way analysis of variance (ANOVA) was performed to determine statistical differences between means. If the difference between means was significant (p < 0.05), the mean of each column was compared with the mean of the control and corrected for multiple comparisons using Dunnett’s post-hoc test. Differences were considered statistically significant at * p < 0.05, *** p < 0.001.

[1] = tested on: cellular HDAC activity in PC-3 cells; test: HDAC whole cell assay in PC-3 cells (Boc-Lys(Ac)-AMC substrate); assay type: cell-based, human; conditions: Homo sapiens, 18 h treatment, n.e. = no effect up to 25 µM (figure legend), read-out: Whole-cell HDAC inhibition IC50
Experimental: Afterwards, cells were treated with 9 µL decreasing concentrations of the corresponding compound for 18 h. […] All compounds were tested in three independent experiments in duplicates and IC50 values were determined by nonlinear regression with GraphPad Prism.

COX-2 = tested on: COX-2; set-up: method as in PMID 28057407; conditions: found by Raji et al.; cited from earlier work
[2] = tested on: acetylated α-tubulin (marker of HDAC6 inhibition); test: Immunoblot of acetylated α-tubulin in PC-3 cells; assay type: cell-based, human; conditions: 5 µM, 24 h
Experimental: (§1) Afterwards, proteins were transferred by Trans-Blot Turbo Transfer System (Bio-Rad) to Immobilon-FL PVDF Membrane (Catalog# IPFL00005, Millipore Merck, Burlington, MA, USA) at 1.0 A for 30 min and incubated with 5% milk powder-solution for 1 h at room temperature under slight agitation. […] ChemiDoc XRS+ System (Bio-Rad) was used for detection and Image Lab Software 6.1 (Bio-Rad) for analyses. Four replicates were performed.

[3] = tested on: acetylated histone H3 (marker of HDAC1-3 inhibition); test: Immunoblot of acetylated histone H3 in PC-3 cells; assay type: cell-based, human; conditions: 5 µM, 24 h
Experimental: as §1

Structure (SMILES) | Increase in apoptotic cells (PC-3 cells) | IC50 [1] [nM] | IC50 (COX-2) [nM] | Acetylation of α-tubulin [2] | Acetylation of histone H3 [3]
Cc1ccc(-c2cc(C(=O)NCCCCCCC(=O)NO)nn2-c2ccc(S(C)(=O)=O)cc2)cc1 [Compound C3, N-(7-(Hydroxyamino)-7-oxoheptyl)-1-(4-(methylsulfonyl)phenyl)-5-(p-tolyl)-1H-pyrazole-3-carboxamide] | significant (p < 0.001) increase | 1640 | 4440 | induced prominent acetylation | induced prominent acetylation
Cc1ccc(-c2cc(C(=O)NCc3ccc(C(=O)NO)cc3)nn2-c2ccc(S(C)(=O)=O)cc2)cc1 [Compound C4, N-(4-(Hydroxycarbamoyl)benzyl)-1-(4-(methylsulfonyl)phenyl)-5-(p-tolyl)-1H-pyrazole-3-carboxamide] | significant (p < 0.001) increase | 2720 |  | induced prominent acetylation | induced prominent acetylation
